Each block holds one compound with its values, some of them ahead of it.
Legend:
[1] = Form A and Form B inter-conversion study (competitive slurry, XRPD); format: physicochemical
Method: Competitive slurry experiments were conducted to evaluate the relative stability of Form A and Form B. Inter-conversion study was performed at room temperature and 50° C. using single and binary solvents listed in the Table 1 below. About 80 mg (100 mg for 50° C.) of Form A and Form B (1:1, w/w) was weighed into sample vials (8 mL) and then 3 mL (2 mL for 50° C.) of solvents were added to each vial. The obtained suspensions were kept stirring for 7 days at room temperature and 50° C., then filtered at specified time. The wet and dried solids were analyzed by XRPD (dried in vacuum oven at 45° C.).
Form B was dominant in tested solvent systems with water activity below 0.15 at room temperature (24˜27° C.). […] Pure Form A and Form B were stable during drying process (50° C., vacuum) for at least 2 days.

[2] = Solubility in bio-relevant media; format: physicochemical; details: for solubility at 24 h: salts; for pH value: solubility sample of salt

XRPD results of slurry ([1]; 1% water/acetone, 24~27° C., 1 d, after dry): A + B | XRPD results of slurry ([1]; 1% water/acetone, 24~27° C., 1 d, before dry): A + B | XRPD results of slurry ([1]; 1% water/acetone, 24~27° C., 3 d, after dry): A + B | XRPD results of slurry ([1]; 1% water/acetone, 24~27° C., 3 d, before dry): A + B | XRPD results of slurry ([1]; 1% water/acetone, 24~27° C., 7 d, before dry): A + B(increased) | XRPD results of slurry ([1]; 30% water/acetone, 24~27° C., 1 d, after dry): A + B | XRPD results of slurry ([1]; 30% water/acetone, 24~27° C., 1 d, before dry): A + B | XRPD results of slurry ([1]; 30% water/acetone, 24~27° C., 7 d, before dry): A + B | XRPD results of slurry ([1]; 30% water/acetone, 50° C., 1 d, after dry): A + B | XRPD results of slurry ([1]; 30% water/acetone, 50° C., 1 d, before dry): A + B | XRPD results of slurry ([1]; Acetone (no water), 50° C., 1 d, before dry): A (minor) + B | XRPD results of slurry ([1]; Acetone(no water), 24~27° C., 1 d, after dry): A + B | XRPD results of slurry ([1]; Acetone(no water), 24~27° C., 1 d, before dry): A + B | XRPD results of slurry ([1]; Acetone(no water), 24~27° C., 3 d, after dry): A + B | XRPD results of slurry ([1]; Acetone(no water), 24~27° C., 3 d, before dry): A + B | XRPD results of slurry ([1]; Acetone(no water), 24~27° C., 7 d, before dry): A + B(increased) | XRPD results of slurry ([1]; EtOH/IPA (1/1), 24~27° C., 1 d, after dry): A + B | XRPD results of slurry ([1]; EtOH/IPA (1/1), 24~27° C., 1 d, before dry): A + B | XRPD results of slurry ([1]; EtOH/IPA (1/1), 24~27° C., 7 d, before dry): A + B(increased) | XRPD results of slurry ([1]; EtOH/IPA (7/2), 24~27° C., 1 d, after dry): A + B | XRPD results of slurry ([1]; EtOH/IPA (7/2), 24~27° C., 1 d, before dry): A + B | XRPD results of slurry ([1]; EtOH/IPA (7/2), 24~27° C., 7 d, before dry): A + B(increased) | XRPD results of slurry ([1]; EtOH/water (1/1), 24~27° C., 1 d, after dry): A + B | XRPD results of slurry ([1]; EtOH/water (1/1), 24~27° C., 1 d, before dry): A + B | XRPD results of slurry ([1]; EtOH/water (1/1), 24~27° C., 7 d, before dry): A + B | XRPD results of slurry ([1]; Water, 24~27° C., 1 d, after dry): A + B | XRPD results of slurry ([1]; Water, 24~27° C., 1 d, before dry): A + B | XRPD results of slurry ([1]; Water, 24~27° C., 3 d, after dry): A + B | XRPD results of slurry ([1]; Water, 24~27° C., 3 d, before dry): A + B | XRPD results of slurry ([1]; Water, 24~27° C., 7 d, before dry): A + B | XRPD results of slurry ([1]; Water, 50° C., 1 d, after dry): A + B | XRPD results of slurry ([1]; Water, 50° C., 1 d, before dry): A + B | XRPD results of slurry ([1]; Water, 50° C., 3 d, after dry): A + B | XRPD results of slurry ([1]; Water, 50° C., 3 d, before dry): A + B | XRPD results of slurry ([1]; Water, 50° C., 7 d, before dry): A + B
Structure (SMILES): C=CC(=O)Nc1cc(Nc2nccc(Nc3cc(Cl)c(F)cc3C(C)(C)O)n2)c(OC)cc1N1CC[C@@H](N(C)C)C1 [Form A and Form B (1:1, w/w), (R)-N-(5-((4-((5-chloro-4-fluoro-2-(2-hydroxypropan-2-yl)phenyl)amino)pyrimidin-2-yl)amino)-2-(3-(dimethylamino)pyrrolidin-1-yl)-4-methoxyphenyl)acrylamide]

solubility at 24 h ([2]; FaSSIF): > 10.1 mg/mL | pH value ([2]; FaSSIF): 5.22 | solubility at 24 h ([2]; FeSSIF): > 9.75 mg/mL | pH value ([2]; FeSSIF): 4.94 | solubility at 24 h ([2]; SGF, simulated gastric fluid): > 12.2 mg/mL | pH value ([2]; SGF): 3.98
Structure (SMILES): C=CC(=O)Nc1cc(Nc2nccc(Nc3cc(Cl)c(F)cc3C(C)(C)O)n2)c(OC)cc1N1CC[C@@H](N(C)C)C1.O=C(O)/C=C/C(=O)O [Fumaric acid salt, (R)—N-(5-((4-((5-chloro-4-fluoro-2-(2-hydroxypropan-2-yl)phenyl)amino)pyrimidin-2-yl)amino)-2-(3-(dimethylamino)pyrrolidin-1-yl)-4-methoxyphenyl)acrylamide fumarate]

solubility at 24 h ([2]; FaSSIF): 1.95 mg/mL | pH value ([2]; FaSSIF): 6.62 | solubility at 24 h ([2]; FeSSIF): > 11.1 mg/mL | pH value ([2]; FeSSIF): 5.44 | solubility at 24 h ([2]; SGF, simulated gastric fluid): 11.8 mg/mL | pH value ([2]; SGF): 5.65
Structure (SMILES): C=CC(=O)Nc1cc(Nc2nccc(Nc3cc(Cl)c(F)cc3C(C)(C)O)n2)c(OC)cc1N1CC[C@@H](N(C)C)C1.Cl [Hydrochloric acid salt, (R)—N-(5-((4-((5-chloro-4-fluoro-2-(2-hydroxypropan-2-yl)phenyl)amino)pyrimidin-2-yl)amino)-2-(3-(dimethylamino)pyrrolidin-1-yl)-4-methoxyphenyl)acrylamide Hydrochloride]
